Assay results published in US4161522A, “Method for blocking allergic responses” (The Regents of the University of California, priority 1978, dated 1979).
Ends that are not written are not given here. Peptide text beside a SMILES is read from it. * marks the point of attachment. Octanoyl = CCCCCCCC(=O)*

Experiments:
[1] = tested on: Prausnitz-Kustner (P-K) reaction; test: Prausnitz-Kustner (P-K) reaction blocking assay in human volunteers; assay type: in vivo; details: peptide approx. 6 μg/ml
Description: The "blocking" activity of the polypeptides of the invention can be assayed by utilization of the classic Prausnitz-Kustner (P-K) reaction. In this classic method, a known allergic serum i.e., one that contains IgE specific for a known antigen or allergen is injected intradermally into a human volunteer. After waiting a period of time, e.g. 20 or more hours, the injected sites are then challenged with a prick or injection of a solution of an antigen that is specific for the IgE in the injected serum. Within the next 10 to 30 minutes a positive reaction is evidenced by the development of a wheal (and flare) at the injected site. The more extensive the diameter of the wheal the more intensive is the allergic reaction. That is, a more extensive wheal indicates a greater release of histamine into the tissues at the injected site. Conversely, the development of wheals of lesser diameter or the absence of any wheal at all indicates diminished allergic reaction and/or no allergic reaction at all. The P-K reaction as noted above is a classic test and is universally known and utilized by allergists.
All of these assays were performed using a single proven safe P-K donor serum that contains IgE specific for guinea pig allergens.
Peptide solutions were either injected intradermally 1 to 24 hours prior to the P-K serum, or mixed with dilutions of the P-K serum for simultaneous injection. Initial tests were performed using the P-K serum at from 1:4 to 1:200 dilutions. Further studies were run at a fixed P-K dilution of 1:32 while the invention peptide solutions were varied to contain from about 1 mM to […] of the peptide being tested. Injected sites on the volunteers were challenged by prick-puncture of guinea pig BCA 1:40 w/v (purchased from Berkeley Biologicals, Inc.).
Human volunteers were chosen who had serum IgE levels below 100 U/ml. (242 ng/ml.) which levels have been previously shown to assure successful P-K reactivity. […] P-K and skin tests were performed on the back and/or forearm. […]

wheal and flare reaction = test: Displacement of IgE: direct skin challenge in an individual sensitive to guinea pig antigens; assay type: in vivo, human; details: single sensitive individual
Description: It has also been determined that the active polypeptides of the invention appear to have the ability to "displace" IgE from mast cells as well as to prevent the binding of the IgE to the receptors. In a single test, an individual known to have extreme sensitivity to guinea pig antigens, that is a person with a high natural concentration of guinea-pig-antigen-sensitive IgE, was injected with polypeptides in accordance with the invention, and […] reaction to guinea pig antigen was noted.
Specifically, approximately 2 nM each of Asp-Ser-Asp-Pro-Arg and Ala-Asp-Ser-Asp-Pro-Arg were each intradermally injected into 3 marked sites. For comparison, TASME, as well as a control of the buffer diluent alone, was also each injected into 3 marked sites. At one, five and twenty-four hours subsequent to the polypeptide and control injection, one of each peptide and one diluent site were prick-puncture challenged with guinea pig antigen. […] However, at the twenty-four hour challenge, the wheal at the Asp-Ser-Asp-Pro-Arg site was approximately 45% smaller; while at the Ala-Asp-Ser-Asp-Pro-Arg site, the wheal was approximately 23% smaller.

DBA white mice = test: Acute toxicity in mice; assay type: in vivo; details: for survival 24 to 72 hours post-injection: 1.4 ml total i.d./s.c./i.v./i.p.
Description: Acute toxicity was determined as follows:
DBA white mice (average weight 15 g.) were each injected with 1.4 ml. of a solution of the peptide in phosphate buffered saline, pH 7.4, as follows:
0.1 ml. × 3 intradermally
0.1 ml. × 3 subcutaneously
0.6 ml. intraperitoneally
The peptides and concentrations used were as follows: […]

[2] = tested on: Wil-2WT human lymphoblastoid tissue culture cell line; test: Blocking of binding of I125-tagged IgE to Wil-2WT cells in vitro
Description: In this regard, the 8 carbon chain acyl substituted peptide, octanoyl-Asp-Ser-Asp-Pro-Arg, as well as the […] acyl substituted peptide, acetoyl-Asp-Ser-Asp-Pro-Arg, were prepared by the method outlined in Example 10 above. These peptides were tested, in vitro, for their blocking ability with respect to the Wil-2WT human lymphoblastoid tissue culture cell line as follows.
Wil-2WT cells in culture medium were centrifuged at about 2000 RPM. The separated cells were mixed with minimal essential medium (MEM) and recentrifuged at 2000 RPM. The supernatent was decanted off completely and the residual cells were suspended in MEM+3% human serum albumin (HSA). The cell suspension was divided into suitable aliquots in reaction tubes. Blanks and control reaction tubes were also prepared. To various of the cell suspension tubes, were added known amount of Sha Myeloma E; Sha Myeloma E and octanoyl-Asp-Ser-Asp-Pro-Arg; or Sha Myeloma E and acetoyl-Asp-Ser-Asp-Pro-Arg. After mixing and standing at room temperature for approximately one hour, a known quantity of deaggregated IgE, tagged with radioactive iodine (I^125) was added to the tubes. After standing a short time, the capped tubes were mixed by slow inversion over an hour's time. […] The suspension was then counted on a gamma counter in order to determine the amount of tagged IgE bound to the Wil-2WT cells.

tosyl-L-arginine sarcosine methylester [TASME]
inhibition, individual high ([1]; highest of six individuals, 0.1 ml per site): 40% | inhibition, individual low ([1]; lowest of six individuals, 0.1 ml per site): 0% | average % inhibition (P-K wheal) ([1]; six individuals, 0.1 ml intradermally, 0.05 ml diluted P-K serum containing 0.2 ng IgE, versus control wheal): 24% | inhibition of the wheal and flare reaction (wheal and flare reaction; challenge at one and five hours after intradermal injection of approx. 2 nM): No inhibition | wheal smaller than at buffered saline diluent site (wheal and flare reaction; challenge at twenty-four hours after intradermal injection of approx. 2 nM): No reduction

C[C@H](N)C(=O)N[C@@H](CC(=O)O)C(=O)N[C@@H](CO)C(=O)N[C@@H](CC(=O)O)C(=O)N1CCC[C@H]1C(=O)N[C@@H](CCCNC(=N)N)C(=O)O [Ala-Asp-Ser-Asp-Pro-Arg] (H-ADSDPR-OH)
survival 24 to 72 hours post-injection (DBA white mice; 5 μg/ml (375 mg/kg), 6 mice): all still living | post-mortem gross and microscopic examination of tissues and organs (DBA white mice; 5 μg/ml (375 mg/kg), 6 mice): no local or systemic toxico-logical abnormalities

CCCCCCCC(=O)N[C@@H](CC(=O)O)C(=O)N[C@@H](CO)C(=O)N[C@@H](CC(=O)O)C(=O)N1CCC[C@H]1C(=O)N[C@@H](CCCNC(=N)N)C(=O)O [octanoyl-Asp-Ser-Asp-Pro-Arg] (Octanoyl-DSDPR-OH)
blocking of the binding of IgE to Wil-2WT cells, highest seen ([2]; as high as, in several procedures): ≤ 25%

N=C(N)NCCC[C@H](NC(=O)[C@@H]1CCCN1C(=O)[C@H](CC(=O)O)NC(=O)[C@H](CO)NC(=O)[C@@H](N)CC(=O)O)C(=O)O [Asp-Ser-Asp-Pro-Arg] (H-DSDPR-OH)
survival 24 to 72 hours post-injection (DBA white mice; 10 μg/ml (1 mg/kg), 8 mice): all still living | post-mortem gross and microscopic examination of tissues and organs (DBA white mice; 10 μg/ml (1 mg/kg), 8 mice): no local or systemic toxico-logical abnormalities | survival 24 to 72 hours post-injection (DBA white mice; 13 μg/ml (1.3 mg/kg), 8 mice): all still living | post-mortem gross and microscopic examination of tissues and organs (DBA white mice; 13 μg/ml (1.3 mg/kg), 8 mice): no local or systemic toxico-logical abnormalities

acetoyl-Asp-Ser-Asp-Pro-Arg (Ac-DSDPR)
blocking ability on Wil-2WT cells (in words) [2]: did not exhibit any blocking ability whatsoever
